# Reference: ChEMBL document CHEMBL1127541, “3,4-Dihydro-3-amino-2H-1-benzopyran derivatives as 5-HT1A receptor ligands and potential anxiolytic agents. 1. Synthesis and structure--activity relationship studies” (J Med Chem, 1994)
# Legend:
# [1] = molecular target: T1, Alpha-2A adrenergic receptor (Bos taurus, UniProt Q28838); test: Binding affinity against alpha-2 adrenergic receptor in calf frontal cortex; format: tissue-based
# T1 sequence (Q28838 whole entry): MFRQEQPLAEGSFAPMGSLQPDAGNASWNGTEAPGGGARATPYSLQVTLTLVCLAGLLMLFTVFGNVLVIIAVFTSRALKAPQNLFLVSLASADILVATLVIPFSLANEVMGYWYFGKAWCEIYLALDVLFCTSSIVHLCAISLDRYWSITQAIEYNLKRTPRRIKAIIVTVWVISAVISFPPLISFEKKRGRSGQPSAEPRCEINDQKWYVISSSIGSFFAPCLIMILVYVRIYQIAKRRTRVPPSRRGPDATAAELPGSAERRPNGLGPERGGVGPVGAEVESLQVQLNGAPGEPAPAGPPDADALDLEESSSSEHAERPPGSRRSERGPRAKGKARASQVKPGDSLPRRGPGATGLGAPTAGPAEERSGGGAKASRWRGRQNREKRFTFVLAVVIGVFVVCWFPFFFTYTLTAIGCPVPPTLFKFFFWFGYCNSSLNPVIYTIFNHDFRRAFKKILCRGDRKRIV
# [2] = molecular target: 5-hydroxytryptamine receptor 2A (Bos taurus, UniProt Q75Z89); test: Binding affinity towards 5-hydroxytryptamine 2 receptor in calf frontal cortex; format: tissue-based
# [3] = Inhibitory concentration of compound was tested as agonist activity against forskolin activated adenylate cyclase; format: functional
# [4] = test system: Mus musculus; test: The in vivo compartmental activity was evaluated as minimum significant active dose measured by Forepaw treading test; format: functional
# [5] = molecular target: D(2) dopamine receptor (Bos taurus, UniProt P20288); test: Binding affinity against D2 receptor in calf caudate nucleus
# [6] = molecular target: T2, 5-hydroxytryptamine receptor 1A (Rattus norvegicus, UniProt P19327); test: Binding affinity against 5-hydroxytryptamine 1A (5-HT1A) receptor in rat hippocampus membranes; format: cell membranes, Membrane
# T2 sequence (P19327 whole entry): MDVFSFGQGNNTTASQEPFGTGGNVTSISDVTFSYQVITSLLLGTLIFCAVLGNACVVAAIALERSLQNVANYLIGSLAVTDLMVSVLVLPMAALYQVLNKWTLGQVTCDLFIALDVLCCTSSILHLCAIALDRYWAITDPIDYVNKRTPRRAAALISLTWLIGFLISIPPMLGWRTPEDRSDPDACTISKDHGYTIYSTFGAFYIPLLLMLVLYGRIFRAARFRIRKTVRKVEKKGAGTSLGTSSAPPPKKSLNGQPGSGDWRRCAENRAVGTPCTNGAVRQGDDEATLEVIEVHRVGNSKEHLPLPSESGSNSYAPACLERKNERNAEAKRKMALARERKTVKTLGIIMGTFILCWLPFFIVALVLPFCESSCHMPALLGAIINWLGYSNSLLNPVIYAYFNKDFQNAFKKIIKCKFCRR
# [7] = test system: Mus musculus; test: The in vivo compartmental activity was evaluated as minimum significant active dose measured by Drug discrimination test; format: functional
# [8] = molecular target: D(1A) dopamine receptor (Bos taurus, UniProt Q95136); test: Binding affinity towards dopamine receptor D1 in calf striatum; format: tissue-based
# [9] = test system: Mus musculus; test: The in vivo compartmental activity was evaluated as minimum significant active dose measured by lower lip retraction test; format: functional
# [10] = molecular target: 5-hydroxytryptamine receptor 1B (Rattus norvegicus, UniProt P28564); test: Binding affinity for 5-hydroxytryptamine 1B receptor in rat cortex, striatum and globus pallidus; format: tissue-based
# [11] = test system: Mus musculus; test: (§1) The in vivo compartmental activity was evaluated as minimum significant active dose measured by punishment test; format: functional
# [12] = molecular target: T3, Alpha-1A adrenergic receptor (Bos taurus, UniProt P18130); test: Binding affinity against alpha-1 adrenergic receptor in calf frontal cortex; format: tissue-based
# T3 sequence (P18130 whole entry): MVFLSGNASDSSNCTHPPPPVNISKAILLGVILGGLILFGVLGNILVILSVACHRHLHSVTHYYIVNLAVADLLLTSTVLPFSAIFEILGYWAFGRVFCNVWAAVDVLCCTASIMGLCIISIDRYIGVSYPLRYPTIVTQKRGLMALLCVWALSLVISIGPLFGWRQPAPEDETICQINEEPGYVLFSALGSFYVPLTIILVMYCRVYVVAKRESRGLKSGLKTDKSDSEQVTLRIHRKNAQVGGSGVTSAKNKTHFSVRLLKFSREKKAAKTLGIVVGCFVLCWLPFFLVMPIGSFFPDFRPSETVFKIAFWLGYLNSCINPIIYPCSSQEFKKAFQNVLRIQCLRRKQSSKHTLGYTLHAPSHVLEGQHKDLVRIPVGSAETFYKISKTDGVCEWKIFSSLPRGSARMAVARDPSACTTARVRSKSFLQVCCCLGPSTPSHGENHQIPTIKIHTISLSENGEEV
# [13] = test system: Mus musculus; test: The in vivo compartmental activity was evaluated as minimum significant active dose measured by Dark/light box test; format: functional
# [14] = species on record: Mus musculus; test: Inhibitory concentration of compound was tested as agonist activity against DRN firing in the dorsal raphe nucleus; format: functional, organism-based
# [15] = Inhibitory concentration of compound was tested as agonist activity against DRN serotonergic neurons firing in the dorsal raphe nucleus; format: functional, tissue-based, Rattus norvegicus
# [16] = test system: Mus musculus; test: as §1; format: ADME, organism-based
# 5-hydroxytryptamine receptor 2A, sequence (Q75Z89 whole entry): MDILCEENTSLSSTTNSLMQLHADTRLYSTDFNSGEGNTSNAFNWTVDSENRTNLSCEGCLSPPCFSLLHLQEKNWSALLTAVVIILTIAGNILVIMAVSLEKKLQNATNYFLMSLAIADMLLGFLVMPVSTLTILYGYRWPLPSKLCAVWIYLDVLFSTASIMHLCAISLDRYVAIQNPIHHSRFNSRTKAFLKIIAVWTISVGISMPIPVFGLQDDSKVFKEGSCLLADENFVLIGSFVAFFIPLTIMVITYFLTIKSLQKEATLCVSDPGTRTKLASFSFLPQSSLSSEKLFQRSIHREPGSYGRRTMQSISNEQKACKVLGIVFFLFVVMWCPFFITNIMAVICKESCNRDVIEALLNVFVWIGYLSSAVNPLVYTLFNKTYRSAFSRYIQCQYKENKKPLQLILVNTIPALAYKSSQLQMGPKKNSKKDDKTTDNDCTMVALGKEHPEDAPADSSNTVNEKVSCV
# D(2) dopamine receptor, sequence (P20288 whole entry): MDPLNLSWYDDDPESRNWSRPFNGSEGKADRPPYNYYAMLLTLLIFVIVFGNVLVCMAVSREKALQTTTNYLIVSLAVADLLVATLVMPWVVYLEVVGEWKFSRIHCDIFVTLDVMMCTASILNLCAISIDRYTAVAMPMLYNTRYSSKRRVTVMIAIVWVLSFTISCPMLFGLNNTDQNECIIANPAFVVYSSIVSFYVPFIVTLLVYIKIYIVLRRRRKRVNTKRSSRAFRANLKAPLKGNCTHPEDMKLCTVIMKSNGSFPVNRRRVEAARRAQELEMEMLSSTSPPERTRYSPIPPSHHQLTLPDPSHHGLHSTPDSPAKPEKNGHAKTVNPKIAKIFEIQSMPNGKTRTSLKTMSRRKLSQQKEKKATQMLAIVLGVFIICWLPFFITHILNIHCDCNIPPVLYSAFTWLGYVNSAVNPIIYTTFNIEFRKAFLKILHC
# D(1A) dopamine receptor, sequence (Q95136 whole entry): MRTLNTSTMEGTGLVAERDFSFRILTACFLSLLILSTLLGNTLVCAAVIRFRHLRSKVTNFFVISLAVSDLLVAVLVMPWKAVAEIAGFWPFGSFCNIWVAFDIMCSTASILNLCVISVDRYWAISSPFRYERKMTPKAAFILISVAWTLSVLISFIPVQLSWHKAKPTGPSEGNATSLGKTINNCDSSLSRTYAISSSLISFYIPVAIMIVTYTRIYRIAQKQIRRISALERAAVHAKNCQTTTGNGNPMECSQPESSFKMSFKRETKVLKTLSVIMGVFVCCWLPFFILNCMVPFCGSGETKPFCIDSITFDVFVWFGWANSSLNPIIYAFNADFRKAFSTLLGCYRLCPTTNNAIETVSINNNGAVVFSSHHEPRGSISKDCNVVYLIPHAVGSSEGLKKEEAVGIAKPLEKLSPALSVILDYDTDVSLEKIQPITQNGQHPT
# 5-hydroxytryptamine receptor 1B, sequence (P28564 whole entry): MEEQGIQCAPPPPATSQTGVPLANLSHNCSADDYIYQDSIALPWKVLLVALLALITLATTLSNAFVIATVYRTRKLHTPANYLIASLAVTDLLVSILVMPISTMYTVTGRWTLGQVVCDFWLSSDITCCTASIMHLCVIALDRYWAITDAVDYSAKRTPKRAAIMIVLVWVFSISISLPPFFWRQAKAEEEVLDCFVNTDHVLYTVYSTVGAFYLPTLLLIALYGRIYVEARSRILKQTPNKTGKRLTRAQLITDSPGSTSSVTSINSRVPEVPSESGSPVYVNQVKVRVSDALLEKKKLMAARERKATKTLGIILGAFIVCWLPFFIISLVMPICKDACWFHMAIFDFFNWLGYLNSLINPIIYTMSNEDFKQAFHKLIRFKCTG
IC50 [1] [µM],IC50 [2] [µM],IC50 [3] [µM],IC50 [5] [µM],IC50 [6] [µM],IC50 [8] [µM],IC50 [10] [µM],IC50 [12] [µM],IC50 [14] [µM],SMILES,FPT msad [4] [mg/kg],DDT msad [7] [mg/kg],LLR msad [9] [mg/kg],Punishment test msad [11] [mg/kg],DLBT [13] [mg/kg],IC50 [15] [µM],Punishment test msad [16] [mg/kg]
0.02,3,0.0102,3,0.0003,40,10,40,~0.006,"CCCN(CCCCN1C(=O)CC2(CCCC2)CC1=O)C1COc2cccc(OC)c2C1.O=C(O)C(=O)O (single isomer, unassigned; (+))",8,0.1,4,0.03,1,–,–
2,5,–,0.06,0.02,20,20,7,–,"CCCN(CCCCNS(=O)(=O)c1ccc(C)cc1)C1COc2cccc(OC)c2C1 (single isomer, unassigned; (-))",–,–,–,–,–,–,–
0.02,5,0.248,0.01,0.002,20,6,20,~0.13,"CCCN(CCCCN1C(=O)CC2(CCCC2)CC1=O)C1COc2cccc(OC)c2C1.O=C(O)C(=O)O (single isomer, unassigned; (-))",32,3,8,1,>2,–,–
5,3,–,0.01,0.001,30,30,8,–,"CCCN(CCCCN1C(=O)C2CCCC2C1=O)C1COc2cccc(OC)c2C1 (single isomer, unassigned; (-))",–,–,–,–,–,–,–
10,1,0.0263,0.01,0.0002,40,5,6,–,CCCN(CCCCN1C(=O)CC2(CCCC2)CC1=O)C1COc2cccc(OC)c2C1.O=C(O)C(=O)O (stereo in doubt; 9g),–,0.3,–,0.06,2,–,–
5,9,–,0.02,0.002,40,20,7,–,CCCN(CCCCN1C(=O)C2CCCC2C1=O)C1COc2cccc(OC)c2C1 (stereo in doubt; 9k),–,–,–,–,–,–,–
> 1000,1,–,0.1,0.002,50,> 1000,100,–,CCCN(CCNS(=O)(=O)c1ccc(C)cc1)C1COc2cccc(OC)c2C1 (stereo in doubt; 15b),–,–,–,–,–,–,–
10,10,–,0.2,0.002,30,8,3,–,CCCN(CCCCNS(=O)(=O)c1ccc(C)cc1)C1COc2cccc(OC)c2C1 (stereo in doubt; 15d),–,–,–,–,–,–,–
10,10,–,0.05,0.005,60,> 1000,1000,–,CCCN(CCNS(=O)(=O)c1ccc(C)cc1)C1COc2cccc(OC)c2C1 (stereo in doubt; (-)-15b),–,–,–,–,–,–,–
2.8,7.5,–,> 1000,0.035,12,50,1.2,–,O=C1c2ccccc2S(=O)(=O)N1CCCCN1CCN(c2ncccn2)CC1 [IPSAPIRONE],–,–,–,–,–,–,–

SMILES,IC50 [1] [µM],IC50 [2] [µM],IC50 [3] [µM],IC50 [5] [µM],IC50 [6] [µM],IC50 [8] [µM],IC50 [10] [µM],IC50 [12] [µM],IC50 [14] [µM],FPT msad [4] [mg/kg],DDT msad [7] [mg/kg],LLR msad [9] [mg/kg],Punishment test msad [11] [mg/kg],DLBT [13] [mg/kg],IC50 [15] [µM],Punishment test msad [16] [mg/kg]
CCCN(CCC)C1COc2cccc(OC)c2C1 (stereo in doubt; 4),4,60,–,0.05,0.02,100,20,80,–,–,–,–,–,–,–,–
CCCN(CCC)C1COc2cccc(OC)c2C1 (stereo in doubt; (-)-4),0.78,4,–,0.21,0.001,> 1000,1,3.5,–,–,–,–,–,–,–,–
CCCN(CCC)C1CCc2cccc(O)c2C1 (stereo not given) [8-OH-DPAT],1,49,~0.008,0.8,–,> 1000,–,30,–,–,–,–,–,–,~0.005,0.1
